According to ChEMBL document CHEMBL3797052 (Eur J Med Chem, 2016):

Columns and labels:
[1] = tested on: SR; experiment: Antiproliferative activity against human SR cells assessed as cell growth at 10^-7 M after 48 hrs by sulforhodamine B assay; type: functional; settings: read-out: Activity
[2] = Antiproliferative activity against human SNB19 cells assessed as cell growth at 10^-7 M after 48 hrs by sulforhodamine B assay; type: functional; settings: SNB-19, 48 h, read-out: Activity
[3] = tested on: MDA-MB-468; experiment: Antiproliferative activity against human MDA-MB-468 cells assessed as cell growth at 10^-6 M after 48 hrs by sulforhodamine B assay; type: functional; settings: MDA-MB-468, 48 h, read-out: Activity
[4] = tested on: SK-MEL-28; experiment: Antiproliferative activity against human SK-MEL-28 cells assessed as growth inhibition after 48 hrs by sulforhodamine B assay; type: functional; settings: SK-MEL-28, 48 h
[5] = tested on: M14; experiment: Antiproliferative activity against human M14 cells assessed as growth inhibition after 48 hrs by sulforhodamine B assay; type: functional; settings: M14, 48 h; for CC50: read-out: LC50 (the source's name)
[6] = tested on: SK-MEL-28; experiment: Antiproliferative activity against human SK-MEL-28 cells assessed as cell growth at 10^-7 M after 48 hrs by sulforhodamine B assay; type: functional; settings: SK-MEL-28, 48 h, read-out: Activity
[7] = Antiproliferative activity against human OVCAR4 cells assessed as cell growth at 10^-7 M after 48 hrs by sulforhodamine B assay; type: functional; settings: OVCAR-4, 48 h, read-out: Activity
[8] = Antiproliferative activity against human OVCAR8 cells assessed as cell growth at 10^-7 M after 48 hrs by sulforhodamine B assay; type: functional; settings: OVCAR-8, 48 h, read-out: Activity
[9] = Antiproliferative activity against human RXF393 cells assessed as cell growth at 10^-7 M after 48 hrs by sulforhodamine B assay; type: functional; settings: RXF 393, 48 h, read-out: Activity
[10] = tested on: U-251; experiment: Antiproliferative activity against human U251 cells assessed as growth inhibition after 48 hrs by sulforhodamine B assay; type: functional; settings: U-251, 48 h
[11] = Antiproliferative activity against human HCC2998 cells assessed as growth inhibition after 48 hrs by sulforhodamine B assay; type: functional; settings: HCC 2998, 48 h; for CC50: read-out: LC50 (the source's name)
[12] = tested on: NCI-H322M; experiment: Antiproliferative activity against human NCI-H322M cells assessed as growth inhibition after 48 hrs by sulforhodamine B assay; type: functional
[13] = tested on: NCI-H23; experiment: Antiproliferative activity against human NCI-H23 cells assessed as growth inhibition after 48 hrs by sulforhodamine B assay; type: functional; settings: NCI-H23, 48 h
[14] = tested on: EKVX; experiment: Antiproliferative activity against human EKVX cells assessed as growth inhibition after 48 hrs by sulforhodamine B assay; type: functional
[15] = target: CYP2C19 (Homo sapiens, UniProt P33261); experiment: Inhibition of recombinant human CYP2C19 assessed as remaining enzyme activity at 10 uM after 5 mins in presence of NADP by fluorescence plate reader analysis; type: ADME; settings: read-out: Activity
[16] = Antiproliferative activity against human HL-60(TB) cells assessed as cell growth at 10^-8 M after 48 hrs by sulforhodamine B assay; type: functional; settings: HL-60, 48 h, read-out: Activity
[17] = tested on: A549; experiment: Antiproliferative activity against human A549/ATCC cells assessed as cell growth at 10^-8 M after 48 hrs by sulforhodamine B assay; type: functional; settings: A549, 48 h, read-out: Activity
[18] = tested on: NCI-H322M; experiment: Antiproliferative activity against human NCI-H322M cells assessed as cell growth at 10^-8 M after 48 hrs by sulforhodamine B assay; type: functional; settings: read-out: Activity
[19] = Antiproliferative activity against human HCT15 cells assessed as cell growth at 10^-8 M after 48 hrs by sulforhodamine B assay; type: functional; settings: HCT-15, 48 h, read-out: Activity
[20] = Antiproliferative activity against human HL-60(TB) cells assessed as cell growth at 10^-6 M after 48 hrs by sulforhodamine B assay; type: functional; settings: HL-60, 48 h, read-out: Activity
[21] = Antiproliferative activity against human SF539 cells assessed as cell growth at 10^-6 M after 48 hrs by sulforhodamine B assay; type: functional; settings: SF-539, 48 h, read-out: Activity
[22] = tested on: CCRF-CEM; experiment: Antiproliferative activity against human CCRF-CEM cells assessed as cell growth at 10^-4 M after 48 hrs by sulforhodamine B assay; type: functional; settings: read-out: Activity
[23] = Antiproliferative activity against human HL-60(TB) cells assessed as cell growth at 10^-4 M after 48 hrs by sulforhodamine B assay; type: functional; settings: HL-60, 48 h, read-out: Activity
[24] = Antiproliferative activity against human SF268 cells assessed as cell growth at 10^-4 M after 48 hrs by sulforhodamine B assay; type: functional; settings: SF-268, 48 h, read-out: Activity
[25] = Antiproliferative activity against human SF539 cells assessed as cell growth at 10^-4 M after 48 hrs by sulforhodamine B assay; type: functional; settings: SF-539, 48 h, read-out: Activity
[26] = Antiproliferative activity against human SNB19 cells assessed as cell growth at 10^-4 M after 48 hrs by sulforhodamine B assay; type: functional; settings: SNB-19, 48 h, read-out: Activity
[27] = Antiproliferative activity against human PC3 cells assessed as cell growth at 10^-8 M after 48 hrs by sulforhodamine B assay; type: functional; settings: PC-3, 48 h, read-out: Activity
[28] = tested on: MCF7; experiment: Antiproliferative activity against human MCF7 cells assessed as cell growth at 10^-8 M after 48 hrs by sulforhodamine B assay; type: functional; settings: MCF7, 48 h, read-out: Activity
[29] = tested on: SK-MEL-5; experiment: Antiproliferative activity against human SK-MEL-5 cells assessed as cell growth at 10^-6 M after 48 hrs by sulforhodamine B assay; type: functional; settings: SK-MEL-5, 48 h, read-out: Activity
[30] = Antiproliferative activity against human IGROV1 cells assessed as cell growth at 10^-6 M after 48 hrs by sulforhodamine B assay; type: functional; settings: IGROV-1, 48 h, read-out: Activity
[31] = Antiproliferative activity against human OVCAR3 cells assessed as cell growth at 10^-6 M after 48 hrs by sulforhodamine B assay; type: functional; settings: OVCAR-3, 48 h, read-out: Activity
[32] = tested on: MCF7; experiment: Antiproliferative activity against human MCF7 cells assessed as cell growth at 10^-6 M after 48 hrs by sulforhodamine B assay; type: functional; settings: MCF7, 48 h, read-out: Activity
[33] = Antiproliferative activity against human Hs 578T cells assessed as cell growth at 10^-6 M after 48 hrs by sulforhodamine B assay; type: functional; settings: read-out: Activity
[34] = Antiproliferative activity against human UACC62 cells assessed as cell growth at 10^-4 M after 48 hrs by sulforhodamine B assay; type: functional; settings: UACC-62, 48 h, read-out: Activity
[35] = Antiproliferative activity against human IGROV1 cells assessed as cell growth at 10^-4 M after 48 hrs by sulforhodamine B assay; type: functional; settings: IGROV-1, 48 h, read-out: Activity
[36] = Antiproliferative activity against human Caki1 cells assessed as cell growth at 10^-4 M after 48 hrs by sulforhodamine B assay; type: functional; settings: CAKI-1, 48 h, read-out: Activity
[37] = read-out: LC50 (the source's name)

Sequence of CYP2C19 (P33261 whole entry): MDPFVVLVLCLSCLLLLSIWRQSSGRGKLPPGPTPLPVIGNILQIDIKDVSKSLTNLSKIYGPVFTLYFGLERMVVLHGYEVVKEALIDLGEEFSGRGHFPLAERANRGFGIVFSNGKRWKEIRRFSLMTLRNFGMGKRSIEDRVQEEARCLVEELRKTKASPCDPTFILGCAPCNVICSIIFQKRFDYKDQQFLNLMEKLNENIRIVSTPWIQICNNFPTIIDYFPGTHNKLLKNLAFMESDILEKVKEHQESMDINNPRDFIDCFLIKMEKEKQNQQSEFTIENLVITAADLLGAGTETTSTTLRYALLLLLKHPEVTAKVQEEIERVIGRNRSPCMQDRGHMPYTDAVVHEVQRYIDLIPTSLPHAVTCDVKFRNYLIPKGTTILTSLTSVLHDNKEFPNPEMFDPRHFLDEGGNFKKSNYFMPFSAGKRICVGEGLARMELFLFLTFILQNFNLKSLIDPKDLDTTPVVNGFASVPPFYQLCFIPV

**Q.** With CNC(=O)c1cc(Oc2ccc3nc(NC(=O)Nc4ccc(Cl)c(C(F)(F)F)c4)sc3c2)ccn1 as the compound, how does the growth at 0.1 µM [1] read?
**A.** 105%

**Q.** What about the growth at 0.1 µM [2] of the same compound?
**A.** 100%

**Q.** And the growth at 1 µM [3]?
**A.** 64%

**Q.** And the GI50 [4]?
**A.** 1.56 µM

**Q.** And the GI50 [5]?
**A.** 1.96 µM

**Q.** What about the CC50 [5] of the same compound?
**A.** > 100 µM

**Q.** What about the growth at 0.1 µM [6] of the same compound?
**A.** 92%

**Q.** What about the growth at 0.1 µM [7] of the same compound?
**A.** 95%

**Q.** What about the growth at 0.1 µM [8] of the same compound?
**A.** 108%

**Q.** And the growth at 0.1 µM [9]?
**A.** 90%

**Q.** And the GI50 [10]?
**A.** 1.79 µM

**Q.** And the TGI [10]?
**A.** 3.75 µM

**Q.** What about the TGI [11] of the same compound?
**A.** > 100 µM

**Q.** What about the CC50 [11] of the same compound?
**A.** > 100 µM

**Q.** And the GI50 [12]?
**A.** 2.62 µM

**Q.** And the LC50 (50% lethal concentration) [12]?
**A.** > 100 µM

**Q.** And the GI50 [13]?
**A.** 2.48 µM

**Q.** What about the LC50 [13] of the same compound?
**A.** > 100 µM

**Q.** And the TGI [13]?
**A.** 8.17 µM

**Q.** What about the GI50 [14] of the same compound?
**A.** 1.75 µM

**Q.** What about the TGI [14] of the same compound?
**A.** 4.18 µM

**Q.** What about the activity at 5 min, 10 µM [15] of the same compound?
**A.** 79.9%

**Q.** What about the growth at 0.01 µM [16] of the same compound?
**A.** 101%

**Q.** And the growth at 0.01 µM [17]?
**A.** 104%

**Q.** What about the growth at 0.01 µM [18] of the same compound?
**A.** 101%

**Q.** And the growth at 0.01 µM [19]?
**A.** 97%

**Q.** And the growth at 1 µM [20]?
**A.** 96%

**Q.** And the growth at 1 µM [21]?
**A.** 87%

**Q.** And the growth at 100 µM [22]?
**A.** 53%

**Q.** What about the growth at 100 µM [23] of the same compound?
**A.** 59%

**Q.** And the growth at 100 µM [24]?
**A.** -5%

**Q.** What about the growth at 100 µM [25] of the same compound?
**A.** -49%

**Q.** And the growth at 100 µM [26]?
**A.** -49%

**Q.** And the growth at 0.01 µM [27]?
**A.** 92%

**Q.** What about the growth at 0.01 µM [28] of the same compound?
**A.** 92%

**Q.** And the growth at 1 µM [29]?
**A.** 87%

**Q.** And the growth at 1 µM [30]?
**A.** 88%

**Q.** What about the growth at 1 µM [31] of the same compound?
**A.** 108%

**Q.** What about the growth at 1 µM [32] of the same compound?
**A.** 66%

**Q.** And the growth at 1 µM [33]?
**A.** 65%

**Q.** What about the growth at 100 µM [34] of the same compound?
**A.** 26%

**Q.** What about the growth at 100 µM [35] of the same compound?
**A.** -35%

**Q.** What about the growth at 100 µM [36] of the same compound?
**A.** 17%

**Q.** Which GI50 [4] does the source give for CNC(=O)c1cc(Oc2ccc(NC(=O)Nc3ccc(Cl)c(C(F)(F)F)c3)cc2)ccn1 [SORAFENIB] here?
**A.** 2.51 µM

**Q.** What about the TGI [4] of the same compound?
**A.** 7.94 µM

**Q.** What about the CC50 [4, 37] of the same compound?
**A.** 31.6 µM

**Q.** What about the GI50 [5] of the same compound?
**A.** 2 µM

**Q.** And the TGI [5]?
**A.** 5.01 µM

**Q.** What about the CC50 [5] of the same compound?
**A.** 25.1 µM

**Q.** And the GI50 [10]?
**A.** 2 µM

**Q.** And the TGI [10]?
**A.** 6.31 µM

**Q.** What about the GI50 [11] of the same compound?
**A.** 3.16 µM

**Q.** What about the TGI [11] of the same compound?
**A.** 3.16 µM

**Q.** And the CC50 [11]?
**A.** 6.31 µM

**Q.** What about the GI50 [12] of the same compound?
**A.** 2.51 µM

**Q.** What about the TGI [12] of the same compound?
**A.** 10 µM

**Q.** And the GI50 [13]?
**A.** 2 µM

**Q.** And the TGI [13]?
**A.** 5.01 µM

**Q.** What about the GI50 [14] of the same compound?
**A.** 2.51 µM

**Q.** And the TGI [14]?
**A.** 7.94 µM

**Q.** And the CC50 [14, 37]?
**A.** 63.1 µM
